Peptide text beside a SMILES is read from it.
Tests used:
[1] = molecular target: T1, thrombin fibrin monomer (Homo sapiens, UniProt P02671+P02675+P02679); experiment: Sephadex gel equilibrium binding, thrombin fibrin monomer; conditions: 15 experiments, mean and standard deviation
T1 construct: Thrombin cleaves the bonds Aα16 Arg-17 Gly and Bβ14 Arg-15 Gly, releasing two molecules of fibrinopeptide A and two molecules of fibrinopeptide B; made in house; host or cells: not recombinant: made from fibrinogen by treatment with thrombin
T1 sequence (P02671 36-629 isoform P02671-2): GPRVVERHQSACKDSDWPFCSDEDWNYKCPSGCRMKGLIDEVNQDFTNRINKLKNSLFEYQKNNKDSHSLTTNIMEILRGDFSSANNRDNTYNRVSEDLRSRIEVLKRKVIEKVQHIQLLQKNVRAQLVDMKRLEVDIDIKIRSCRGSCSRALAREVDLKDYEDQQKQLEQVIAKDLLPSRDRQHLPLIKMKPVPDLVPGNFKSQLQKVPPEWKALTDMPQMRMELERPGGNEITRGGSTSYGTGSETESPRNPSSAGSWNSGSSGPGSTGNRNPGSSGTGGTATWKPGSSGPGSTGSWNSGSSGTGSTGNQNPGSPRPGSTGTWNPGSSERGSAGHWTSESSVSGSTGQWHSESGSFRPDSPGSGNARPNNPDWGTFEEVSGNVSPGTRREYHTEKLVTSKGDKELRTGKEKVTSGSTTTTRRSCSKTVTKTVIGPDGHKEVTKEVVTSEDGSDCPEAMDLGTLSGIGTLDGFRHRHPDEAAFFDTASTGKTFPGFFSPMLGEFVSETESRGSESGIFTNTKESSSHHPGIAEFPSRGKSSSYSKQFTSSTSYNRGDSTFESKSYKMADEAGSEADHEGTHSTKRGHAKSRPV
T1 sequence (P02675 45-491): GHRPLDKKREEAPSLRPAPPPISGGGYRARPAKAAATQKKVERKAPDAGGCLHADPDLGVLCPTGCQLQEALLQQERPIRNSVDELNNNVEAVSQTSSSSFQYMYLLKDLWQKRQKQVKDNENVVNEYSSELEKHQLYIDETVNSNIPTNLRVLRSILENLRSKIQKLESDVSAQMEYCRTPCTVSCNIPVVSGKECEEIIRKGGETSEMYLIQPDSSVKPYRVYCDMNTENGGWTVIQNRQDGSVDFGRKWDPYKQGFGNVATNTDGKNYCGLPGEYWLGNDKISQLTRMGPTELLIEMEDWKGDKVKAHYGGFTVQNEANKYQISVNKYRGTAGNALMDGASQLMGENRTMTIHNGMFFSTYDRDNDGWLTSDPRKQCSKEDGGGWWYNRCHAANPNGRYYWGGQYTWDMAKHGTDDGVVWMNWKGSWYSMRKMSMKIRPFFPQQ
T1 sequence (P02679 27-437 isoform P02679-2): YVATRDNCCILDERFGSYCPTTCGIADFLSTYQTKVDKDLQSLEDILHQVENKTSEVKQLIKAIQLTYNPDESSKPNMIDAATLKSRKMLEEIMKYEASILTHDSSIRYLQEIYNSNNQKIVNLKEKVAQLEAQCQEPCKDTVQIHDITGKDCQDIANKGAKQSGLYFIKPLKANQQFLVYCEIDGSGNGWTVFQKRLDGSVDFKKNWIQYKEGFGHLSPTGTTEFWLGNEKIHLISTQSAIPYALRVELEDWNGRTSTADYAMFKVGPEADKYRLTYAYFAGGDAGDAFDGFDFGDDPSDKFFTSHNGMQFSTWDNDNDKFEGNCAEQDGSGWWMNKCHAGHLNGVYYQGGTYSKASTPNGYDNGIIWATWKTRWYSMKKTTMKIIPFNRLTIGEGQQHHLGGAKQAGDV
Description: (§1) Acta 133, 376-379 (1979).
The purification of NDSK involves incubation of fibrinogen in cyanogen bromide in the presence of 70% formic acid. This treatment may alter the binding sites. Therefore, an attempt was made to reproduce the data using fibrin monomer instead of thrombin-treated NDSK. A major difficulty, the self-polymerization of fibrin monomer, was overcome by using high molar ratios of D1 Peptide to fibrin monomer. However, in this situation the concentration of D1 Peptide could be varied only over a small range of concentrations. D1 Peptide was added to the Sephadex gel equilibrium system and incubated for 10 min., then soluble fibrin monomer was added in a molar excess of D1 Peptide to fibrin monomer of 100-1000 fold. Under these conditions the lag time in the fibrin monomer polymerization was more than 30 min.
In experiments using thrombin fibrin monomer the number of binding sites for D1 Peptide was 1.82±0.26 (15 experiments, mean and standard deviation). For batroxobin fibrin monomer the number of binding sites was 1.91±0.24 (17 experiments, mean and standard deviation).

[2] = molecular target: T2, Fragment D1 (Homo sapiens, UniProt P02671+P02675+P02679); experiment: Equilibrium binding of 125-I D1 Peptide, Fragment D1
T2 construct: consisted of three polypeptide chains of different molecular weights: /α/, 12,000; /β, 43,000; and /γ, 39,000; made in house; host or cells: not recombinant: plasmin (plasminogen + streptokinase) digest of human fibrinogen in calcium, then gel filtration
T2 sequence (P02671 124-225 limits assumed): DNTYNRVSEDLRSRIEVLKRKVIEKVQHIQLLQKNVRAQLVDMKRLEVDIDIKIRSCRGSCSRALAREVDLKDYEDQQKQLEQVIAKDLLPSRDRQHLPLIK
T2 sequence (P02675 164-491 limits assumed): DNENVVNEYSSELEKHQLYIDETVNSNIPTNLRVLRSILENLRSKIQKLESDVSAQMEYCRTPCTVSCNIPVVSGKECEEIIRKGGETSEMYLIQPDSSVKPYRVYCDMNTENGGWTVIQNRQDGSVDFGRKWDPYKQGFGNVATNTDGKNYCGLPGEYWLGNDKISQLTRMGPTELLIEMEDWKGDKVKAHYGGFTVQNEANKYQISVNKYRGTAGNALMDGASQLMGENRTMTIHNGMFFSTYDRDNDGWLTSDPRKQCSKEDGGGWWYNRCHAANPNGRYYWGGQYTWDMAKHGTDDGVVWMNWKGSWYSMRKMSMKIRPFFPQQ
T2 sequence (P02679 89-437 isoform P02679-2 limits assumed): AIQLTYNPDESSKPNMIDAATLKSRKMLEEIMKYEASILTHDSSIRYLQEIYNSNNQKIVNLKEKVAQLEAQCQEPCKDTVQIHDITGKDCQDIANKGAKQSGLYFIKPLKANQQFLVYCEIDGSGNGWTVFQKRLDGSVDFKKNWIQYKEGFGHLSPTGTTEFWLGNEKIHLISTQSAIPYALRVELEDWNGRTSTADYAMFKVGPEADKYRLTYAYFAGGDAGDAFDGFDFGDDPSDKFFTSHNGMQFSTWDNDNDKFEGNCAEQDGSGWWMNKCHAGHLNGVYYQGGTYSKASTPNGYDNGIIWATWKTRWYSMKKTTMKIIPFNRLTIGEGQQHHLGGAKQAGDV
From the text: as §1

[3] = molecular target: T3, fibrinogen (Homo sapiens, UniProt P02671+P02675+P02679); experiment: Delay of onset of fibrin polymerization, fibrinogen in the presence of thrombin; format: biochemical; conditions: 1:1 ratio of D1 Peptide to fibrinogen in the presence of thrombin
T3 sequence (P02671 36-629 isoform P02671-2): T1 sequence (P02671 36-629 isoform P02671-2)
T3 sequence (P02675 45-491): T1 sequence (P02675 45-491)
T3 sequence (P02679 27-437 isoform P02679-2): T1 sequence (P02679 27-437 isoform P02679-2)

With `CC[C@H](C)[C@H](NC(=O)[C@H](CCCCN)NC(=O)[C@H](CCSC)NC(=O)[C@@H](NC(=O)[C@@H](NC(=O)[C@H](CCCCN)NC(=O)[C@H](CCCCN)NC(=O)[C@H](CCSC)NC(=O)[C@H](CO)NC(=O)[C@H](Cc1ccc(O)cc1)NC(=O)[C@H](Cc1c[nH]c2ccccc12)NC(=O)[C@H](CCCNC(=N)N)NC(=O)[C@@H](N)[C@@H](C)O)[C@@H](C)O)[C@@H](C)O)C(=O)N[C@H](C(=O)N1CCC[C@H]1C(=O)N[C@@H](Cc1ccccc1)C(=O)N[C@@H](CC(N)=O)C(=O)N[C@@H](CCCNC(=N)N)C(=O)N[C@@H](CC(C)C)C(=O)N[C@H](C(=O)N[C@H](C(=O)NCC(=O)N[C@@H](CCC(=O)O)C(=O)NCC(=O)N[C@@H](CCC(N)=O)C(=O)N[C@@H](CCC(N)=O)C(=O)N[C@@H](Cc1c[nH]cn1)C(=O)N[C@@H](Cc1c[nH]cn1)C(=O)N[C@@H](CC(C)C)C(=O)NCC(=O)NCC(=O)N[C@@H](C)C(=O)N[C@@H](CCCCN)C(=O)N[C@@H](CCC(N)=O)C(=O)N[C@@H](C)C(=O)NCC(=O)N[C@@H](CC(=O)O)C(=O)N[C@H](C(=O)O)C(C)C)[C@@H](C)CC)[C@@H](C)O)[C@@H](C)CC` [D1 Peptide] (H-TRWYSMKKTTMKIIPFNRLTIGEGQQHHLGGAKQAGDV-OH) as the compound, how does the “number of binding sites for D1 Peptide” value [1] read?
Its value is 1.82±0.26.

What about the “binding to Fragment D1” value [2] of the same compound?
Its value is “no measurable binding”.

And the “delay of the onset of fibrin polymerization” value [3]?
Its value is 8 min.
